Measurements taken from PubChem BioAssay (NCI).
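Grown in 96-well plates, cells were treated for 48 hours with each compound at five concentrations. Insufficient inhibition: endpoint recorded as highest concentration tested. GI50 marks 50% less growth. The concentration for full growth arrest is given as TGI.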

Experiments:
Test in all cases: growth of human tumour cells (NCI), 48 h
PC-3 prostate = test system: PC-3 prostate
A549 NSCLC = test system: A549 NSCLC
786-0 renal = test system: 786-0 renal
A498 renal = test system: A498 renal
LOX IMVI melanoma = test system: LOX IMVI melanoma
K-562 leukemia = test system: K-562 leukemia
OVCAR-3 ovarian = test system: OVCAR-3 ovarian
HOP-92 NSCLC = test system: HOP-92 NSCLC
OVCAR-5 ovarian = test system: OVCAR-5 ovarian
SR leukemia = test system: SR leukemia
SNB-75 CNS = test system: SNB-75 CNS
SW-620 colon = test system: SW-620 colon
BT-549 breast = test system: BT-549 breast
SNB-19 CNS = test system: SNB-19 CNS
NCI/ADR-RES ovarian = test system: NCI/ADR-RES ovarian
MDA-MB-231 breast = test system: MDA-MB-231 breast
TK-10 renal = test system: TK-10 renal
SN12C renal = test system: SN12C renal
CAKI-1 renal = test system: CAKI-1 renal
UACC-62 melanoma = test system: UACC-62 melanoma
MOLT-4 leukemia = test system: MOLT-4 leukemia
RPMI-8226 leukemia = test system: RPMI-8226 leukemia
OVCAR-4 ovarian = test system: OVCAR-4 ovarian
ACHN renal = test system: ACHN renal
NCI-H226 lung = test system: NCI-H226 lung
IGROV1 ovarian = test system: IGROV1 ovarian
MCF7 breast = test system: MCF7 breast
NCI-H23 lung = test system: NCI-H23 lung
MDA-MB-435 = test system: MDA-MB-435
KM12 colon = test system: KM12 colon
M14 melanoma = test system: M14 melanoma
SF-539 CNS = test system: SF-539 CNS
UO-31 renal = test system: UO-31 renal
SF-268 CNS = test system: SF-268 CNS
SF-295 CNS = test system: SF-295 CNS
HCT-116 colon = test system: HCT-116 colon
HT29 colon = test system: HT29 colon
U251 CNS = test system: U251 CNS
EKVX NSCLC = test system: EKVX NSCLC
HOP-62 NSCLC = test system: HOP-62 NSCLC
SK-MEL-5 melanoma = test system: SK-MEL-5 melanoma
NCI-H460 lung = test system: NCI-H460 lung
SK-MEL-28 melanoma = test system: SK-MEL-28 melanoma
HCC-2998 colon = test system: HCC-2998 colon
CCRF-CEM leukemia = test system: CCRF-CEM leukemia
UACC-257 melanoma = test system: UACC-257 melanoma
NCI-H522 lung = test system: NCI-H522 lung
HCT-15 colon = test system: HCT-15 colon
DU-145 prostate = test system: DU-145 prostate
OVCAR-8 ovarian = test system: OVCAR-8 ovarian
RXF 393 renal = test system: RXF 393 renal
HL-60(TB) leukemia = test system: HL-60(TB) leukemia
T-47D breast = test system: T-47D breast
HS 578T breast = test system: HS 578T breast
SK-OV-3 ovarian = test system: SK-OV-3 ovarian
COLO 205 colon = test system: COLO 205 colon
SK-MEL-2 melanoma = test system: SK-MEL-2 melanoma
MALME-3M melanoma = test system: MALME-3M melanoma

With `CCOC1OC(=O)[C@H]2[C@@H]1[C@@H]1CC[C@H]2O1` (some centres undefined) the GI50 (PC-3 prostate) was greater than 100 µM, the TGI (PC-3 prostate) was greater than 100 µM and the GI50 (A549 NSCLC) was greater than 100 µM. The TGI (A549 NSCLC) was greater than 100 µM, the GI50 (786-0 renal) was greater than 100 µM and the TGI (786-0 renal) was greater than 100 µM. It also gave a GI50 (A498 renal) greater than 100 µM, a TGI (A498 renal) greater than 100 µM and a GI50 (LOX IMVI melanoma) greater than 100 µM. It also gave a TGI (LOX IMVI melanoma) greater than 100 µM, a GI50 (K-562 leukemia) greater than 100 µM and a TGI (K-562 leukemia) greater than 100 µM. It also gave a GI50 (OVCAR-3 ovarian) greater than 100 µM, a TGI (OVCAR-3 ovarian) greater than 100 µM and a GI50 (HOP-92 NSCLC) greater than 100 µM. The TGI (HOP-92 NSCLC) was greater than 100 µM, the GI50 (OVCAR-5 ovarian) was greater than 100 µM and the TGI (OVCAR-5 ovarian) was greater than 100 µM. The GI50 (SR leukemia) was 33.8 µM, the TGI (SR leukemia) was greater than 100 µM and the TGI (SNB-75 CNS) was greater than 100 µM. For the same molecule, the GI50 (SW-620 colon) was greater than 100 µM, the TGI (SW-620 colon) was greater than 100 µM and the GI50 (BT-549 breast) was greater than 100 µM. For the same molecule, the TGI (BT-549 breast) was greater than 100 µM, the GI50 (SNB-19 CNS) was greater than 100 µM and the TGI (SNB-19 CNS) was greater than 100 µM. It also gave a GI50 (NCI/ADR-RES ovarian) greater than 100 µM, a TGI (NCI/ADR-RES ovarian) greater than 100 µM and a GI50 (MDA-MB-231 breast) greater than 100 µM. For the same molecule, the TGI (MDA-MB-231 breast) was greater than 100 µM, the GI50 (TK-10 renal) was greater than 100 µM and the TGI (TK-10 renal) was greater than 100 µM. For the same molecule, the GI50 (SN12C renal) was greater than 100 µM, the TGI (SN12C renal) was greater than 100 µM and the GI50 (CAKI-1 renal) was greater than 100 µM. For the same molecule, the TGI (CAKI-1 renal) was greater than 100 µM, the GI50 (UACC-62 melanoma) was greater than 100 µM and the TGI (UACC-62 melanoma) was greater than 100 µM. The GI50 (MOLT-4 leukemia) was greater than 100 µM, the TGI (MOLT-4 leukemia) was greater than 100 µM and the GI50 (RPMI-8226 leukemia) was greater than 29.3 µM. For the same molecule, the TGI (RPMI-8226 leukemia) was greater than 100 µM, the GI50 (OVCAR-4 ovarian) was greater than 100 µM and the TGI (OVCAR-4 ovarian) was greater than 100 µM. It also gave a GI50 (ACHN renal) greater than 100 µM, a TGI (ACHN renal) greater than 100 µM and a GI50 (NCI-H226 lung) greater than 100 µM. The TGI (NCI-H226 lung) was greater than 100 µM, the GI50 (IGROV1 ovarian) was greater than 100 µM and the TGI (IGROV1 ovarian) was greater than 100 µM. The GI50 (MCF7 breast) was greater than 100 µM, the TGI (MCF7 breast) was greater than 100 µM and the GI50 (NCI-H23 lung) was greater than 100 µM. For the same molecule, the TGI (NCI-H23 lung) was greater than 100 µM, the GI50 (MDA-MB-435) was greater than 100 µM and the TGI (MDA-MB-435) was greater than 100 µM. It also gave a GI50 (KM12 colon) greater than 76.2 µM, a TGI (KM12 colon) greater than 100 µM and a GI50 (M14 melanoma) greater than 100 µM. For the same molecule, the TGI (M14 melanoma) was greater than 100 µM, the GI50 (SF-539 CNS) was greater than 100 µM and the TGI (SF-539 CNS) was greater than 100 µM. The GI50 (UO-31 renal) was greater than 100 µM, the TGI (UO-31 renal) was greater than 100 µM and the GI50 (SF-268 CNS) was greater than 100 µM. The TGI (SF-268 CNS) was greater than 100 µM, the GI50 (SF-295 CNS) was greater than 100 µM and the TGI (SF-295 CNS) was greater than 100 µM. For the same molecule, the GI50 (HCT-116 colon) was greater than 100 µM, the TGI (HCT-116 colon) was greater than 100 µM and the GI50 (HT29 colon) was 24.8 µM. For the same molecule, the TGI (HT29 colon) was greater than 76.3 µM, the GI50 (U251 CNS) was greater than 100 µM and the TGI (U251 CNS) was greater than 100 µM. For the same molecule, the GI50 (EKVX NSCLC) was greater than 100 µM, the TGI (EKVX NSCLC) was greater than 100 µM and the GI50 (HOP-62 NSCLC) was greater than 100 µM. For the same molecule, the TGI (HOP-62 NSCLC) was greater than 100 µM, the GI50 (SK-MEL-5 melanoma) was greater than 100 µM and the TGI (SK-MEL-5 melanoma) was greater than 100 µM. The GI50 (NCI-H460 lung) was greater than 100 µM, the TGI (NCI-H460 lung) was greater than 100 µM and the GI50 (SK-MEL-28 melanoma) was 0.378 µM. It also gave a TGI (SK-MEL-28 melanoma) greater than 100 µM, a GI50 (HCC-2998 colon) of 13.4 µM and a TGI (HCC-2998 colon) of 29.5 µM. The GI50 (CCRF-CEM leukemia) was greater than 100 µM, the TGI (CCRF-CEM leukemia) was greater than 100 µM and the GI50 (UACC-257 melanoma) was greater than 100 µM. For the same molecule, the TGI (UACC-257 melanoma) was greater than 100 µM, the GI50 (NCI-H522 lung) was greater than 100 µM and the TGI (NCI-H522 lung) was greater than 100 µM. For the same molecule, the GI50 (HCT-15 colon) was greater than 100 µM, the TGI (HCT-15 colon) was greater than 100 µM and the GI50 (DU-145 prostate) was greater than 100 µM. The TGI (DU-145 prostate) was greater than 100 µM, the GI50 (OVCAR-8 ovarian) was greater than 100 µM and the TGI (OVCAR-8 ovarian) was greater than 100 µM. For the same molecule, the GI50 (RXF 393 renal) was greater than 100 µM, the TGI (RXF 393 renal) was greater than 100 µM and the GI50 (HL-60(TB) leukemia) was greater than 100 µM. The TGI (HL-60(TB) leukemia) was greater than 100 µM, the GI50 (T-47D breast) was greater than 59.1 µM and the TGI (T-47D breast) was greater than 100 µM. It also gave a GI50 (HS 578T breast) greater than 100 µM, a TGI (HS 578T breast) greater than 100 µM and a GI50 (SK-OV-3 ovarian) greater than 100 µM. For the same molecule, the TGI (SK-OV-3 ovarian) was greater than 100 µM, the GI50 (COLO 205 colon) was 7.96 µM and the TGI (COLO 205 colon) was greater than 19.8 µM. It also gave a GI50 (SK-MEL-2 melanoma) greater than 100 µM and a TGI (SK-MEL-2 melanoma) greater than 100 µM.

`COc1cc(OC)c2c(O)c(S(=O)(=O)c3ccc(C)cc3)c(=O)oc2c1` was tested, and the TGI (PC-3 prostate) was greater than 100 µM, the TGI (A549 NSCLC) was greater than 100 µM and the TGI (786-0 renal) was greater than 100 µM. It also gave a TGI (A498 renal) greater than 100 µM, a TGI (K-562 leukemia) greater than 100 µM and a TGI (OVCAR-3 ovarian) greater than 100 µM. The TGI (HOP-92 NSCLC) was greater than 100 µM, the TGI (OVCAR-5 ovarian) was greater than 100 µM and the TGI (SR leukemia) was greater than 100 µM. For the same molecule, the TGI (SNB-75 CNS) was greater than 100 µM, the TGI (SW-620 colon) was greater than 100 µM and the TGI (BT-549 breast) was greater than 100 µM. The TGI (SNB-19 CNS) was greater than 100 µM, the TGI (NCI/ADR-RES ovarian) was greater than 100 µM and the TGI (MDA-MB-231 breast) was greater than 100 µM. It also gave a TGI (TK-10 renal) greater than 100 µM, a TGI (SN12C renal) greater than 100 µM and a TGI (CAKI-1 renal) greater than 100 µM. The TGI (UACC-62 melanoma) was greater than 100 µM, the TGI (MOLT-4 leukemia) was greater than 100 µM and the TGI (RPMI-8226 leukemia) was greater than 100 µM. The TGI (OVCAR-4 ovarian) was greater than 100 µM, the TGI (ACHN renal) was greater than 100 µM and the TGI (NCI-H226 lung) was greater than 100 µM. The TGI (IGROV1 ovarian) was greater than 100 µM, the TGI (MCF7 breast) was greater than 100 µM and the TGI (NCI-H23 lung) was greater than 100 µM. For the same molecule, the TGI (MDA-MB-435) was greater than 100 µM, the TGI (KM12 colon) was greater than 100 µM and the TGI (M14 melanoma) was greater than 100 µM. It also gave a TGI (SF-539 CNS) greater than 100 µM, a TGI (UO-31 renal) greater than 100 µM and a TGI (SF-268 CNS) greater than 100 µM. It also gave a TGI (SF-295 CNS) greater than 100 µM, a TGI (HCT-116 colon) greater than 100 µM and a TGI (HT29 colon) greater than 100 µM. It also gave a TGI (U251 CNS) greater than 100 µM, a TGI (EKVX NSCLC) greater than 100 µM and a TGI (SK-MEL-5 melanoma) greater than 100 µM. For the same molecule, the TGI (NCI-H460 lung) was greater than 100 µM, the TGI (SK-MEL-28 melanoma) was greater than 100 µM and the TGI (HCC-2998 colon) was greater than 100 µM. It also gave a TGI (CCRF-CEM leukemia) greater than 100 µM, a TGI (UACC-257 melanoma) greater than 100 µM and a TGI (NCI-H522 lung) greater than 100 µM. The TGI (HCT-15 colon) was greater than 100 µM, the TGI (DU-145 prostate) was greater than 100 µM and the TGI (MALME-3M melanoma) was greater than 100 µM. It also gave a TGI (OVCAR-8 ovarian) greater than 100 µM, a TGI (RXF 393 renal) greater than 100 µM and a TGI (HL-60(TB) leukemia) greater than 100 µM. For the same molecule, the TGI (T-47D breast) was greater than 100 µM, the TGI (HS 578T breast) was greater than 100 µM and the TGI (SK-OV-3 ovarian) was greater than 100 µM. It also gave a TGI (COLO 205 colon) greater than 100 µM and a TGI (SK-MEL-2 melanoma) greater than 100 µM.
